Reference: patent publication US20230072683A1, “PYRIDO-PYRIMIDIN DERIVATIVES AND PHARMACEUTICAL COMPOSITION, FOR USE IN PREVENTING OR TREATING PI3 KINASE RELATED DISEASES, COMPRISING SAME AS ACTIVE INGREDIENT” (BORYUNG PHARMACEUTICAL CO., LTD, priority 2019, published 2023)

Columns and labels:
[1] = biological target: DNA-PK(h) (Homo sapiens, UniProt P78527); assay: Evaluation of inhibitory activity against DNA-PK (HTRF kinase assay, GST-cMyc-p53 substrate); type: biochemical; details: for inhibition at 0.01 µM: compound concentration 0.01 μM, read-out: EXP_VALUE(% Inhibition) DNA-PK(h) 0.01 μM; for inhibition at 0.1 µM: compound concentration 0.1 μM, read-out: EXP_VALUE(% Inhibition) DNA-PK(h) 0.1 μM
In short: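 Human DNA-PK with 50 μM GST-cMyc-p53 substrate; reaction started with Mg/ATP, run 30 min at room temperature, stopped with EDTA. Phospho-Ser15 p53 detected by HTRF (Eu anti-phospho-Ser15, d2 anti-GST), signal = 10000×(Em 665/Em 620).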

[2] = biological target: PI3K-δ (PI3K(p1108/p857) (h)) (Homo sapiens, UniProt O00329); assay: Evaluation of inhibitory activity against PI3K-δ (HTRF kinase assay); type: biochemical; details: for inhibition at 0.01 µM: compound concentration 0.01 μM, read-out: EXP_VALUE(% Inhibition) PI3K-δ 0.01 μM; for inhibition at 0.1 µM: compound concentration 0.1 μM, read-out: EXP_VALUE(% Inhibition) PI3K-δ 0.1 μM
Chain of PI3K-δ (PI3K(p1108/p857) (h)) (O00329 whole entry, the tested form may be a part): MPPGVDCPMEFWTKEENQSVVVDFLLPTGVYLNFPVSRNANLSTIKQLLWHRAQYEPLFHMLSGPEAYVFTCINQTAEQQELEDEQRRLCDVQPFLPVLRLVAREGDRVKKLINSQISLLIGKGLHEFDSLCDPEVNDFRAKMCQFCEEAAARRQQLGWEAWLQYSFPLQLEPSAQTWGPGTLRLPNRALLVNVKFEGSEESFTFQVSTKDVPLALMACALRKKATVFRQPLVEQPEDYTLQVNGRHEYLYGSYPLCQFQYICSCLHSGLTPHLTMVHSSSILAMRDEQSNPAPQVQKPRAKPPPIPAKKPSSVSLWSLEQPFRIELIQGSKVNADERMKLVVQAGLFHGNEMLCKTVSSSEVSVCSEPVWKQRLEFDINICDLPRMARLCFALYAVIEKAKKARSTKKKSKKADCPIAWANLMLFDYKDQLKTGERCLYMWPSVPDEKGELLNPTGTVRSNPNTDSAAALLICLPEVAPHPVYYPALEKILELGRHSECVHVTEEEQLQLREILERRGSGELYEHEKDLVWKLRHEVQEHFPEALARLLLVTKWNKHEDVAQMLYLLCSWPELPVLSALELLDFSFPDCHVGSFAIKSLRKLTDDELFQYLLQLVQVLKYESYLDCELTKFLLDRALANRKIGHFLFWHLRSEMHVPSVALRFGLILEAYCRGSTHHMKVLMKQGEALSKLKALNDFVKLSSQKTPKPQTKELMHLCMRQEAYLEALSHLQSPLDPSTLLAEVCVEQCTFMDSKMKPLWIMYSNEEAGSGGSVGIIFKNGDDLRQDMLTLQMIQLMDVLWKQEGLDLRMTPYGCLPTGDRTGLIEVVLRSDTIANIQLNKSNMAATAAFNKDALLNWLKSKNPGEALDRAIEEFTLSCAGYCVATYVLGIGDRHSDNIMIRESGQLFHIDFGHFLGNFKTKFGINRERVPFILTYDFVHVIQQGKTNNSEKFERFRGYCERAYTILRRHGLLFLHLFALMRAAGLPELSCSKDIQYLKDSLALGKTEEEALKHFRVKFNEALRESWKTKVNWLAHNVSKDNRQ
Chain of PI3K-δ (PI3K(p1108/p857) (h)) (P27986 whole entry partner, the tested form may be a part): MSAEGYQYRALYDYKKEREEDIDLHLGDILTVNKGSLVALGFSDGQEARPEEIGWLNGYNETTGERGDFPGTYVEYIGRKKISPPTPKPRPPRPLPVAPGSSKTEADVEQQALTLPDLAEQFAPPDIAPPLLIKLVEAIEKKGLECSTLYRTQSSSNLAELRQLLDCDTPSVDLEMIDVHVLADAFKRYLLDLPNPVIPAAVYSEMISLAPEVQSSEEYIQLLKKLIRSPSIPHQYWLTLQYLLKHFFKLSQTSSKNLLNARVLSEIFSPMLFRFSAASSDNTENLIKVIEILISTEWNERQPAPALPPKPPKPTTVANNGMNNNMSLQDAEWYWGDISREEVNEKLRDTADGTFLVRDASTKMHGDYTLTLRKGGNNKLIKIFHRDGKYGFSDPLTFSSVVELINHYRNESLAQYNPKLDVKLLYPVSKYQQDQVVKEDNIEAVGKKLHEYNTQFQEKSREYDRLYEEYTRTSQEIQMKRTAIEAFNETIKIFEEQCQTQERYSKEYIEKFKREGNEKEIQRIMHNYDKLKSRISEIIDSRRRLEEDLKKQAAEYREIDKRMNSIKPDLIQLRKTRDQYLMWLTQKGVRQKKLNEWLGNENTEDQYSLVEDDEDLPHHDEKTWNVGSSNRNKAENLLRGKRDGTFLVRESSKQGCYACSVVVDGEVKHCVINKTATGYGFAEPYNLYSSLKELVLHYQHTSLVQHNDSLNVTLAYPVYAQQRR
In short: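 HTRF read-out (665/620 nm ratio ×10000) used Eu-labelled anti-GST, GST-tagged GRP1 PH domain and streptavidin-allophycocyanin after EDTA/PIP3 stop.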

Row | Compound | inhibition at 0.01 µM [1] [%] | inhibition at 0.1 µM [1] [%] | inhibition at 0.01 µM [2] [%] | inhibition at 0.1 µM [2] [%]
1 | C[C@H](Nc1ncnc2[nH]ccc(=O)c12)c1c(Cl)c2cccc(-c3ccc(N4CCOCC4)cc3)c2c(=O)n1-c1ccccc1 [Example 75, (S)-4-((1-(4-chloro-8-(4-morpholinophenyl)-1-oxo-2-phenyl-1,2-dihydroisoquinolin-3-yl)ethyl)amino)pyrido[2,3-d]pyrimidin-5(8H)-one] | 82 | 99 | 79 | 86
2 | CC(C)C1CCN(c2cccc3c(Cl)c([C@H](C)Nc4ncnc5[nH]ccc(=O)c45)n(-c4ccccc4)c(=O)c23)CC1 [Example 76, (S)-4-((1-(4-chloro-8-(4-isopropylpiperidin-1-yl)-1-oxo-2-phenyl-1,2-dihydroisoquinolin-3-yl)ethyl)amino)pyrido[2,3-d]pyrimidin-5(8H)-one] | 1 | 20 | 14 | 43
3 | C[C@H](Nc1ncnc2[nH]ccc(=O)c12)c1c(Cl)c2cccc(N3CCC(NC(=O)OC(C)(C)C)CC3)c2c(=O)n1-c1ccccc1 [Example 77, tert-butyl(S)-(1-(4-chloro-1-oxo-3-(1-((5-oxo-5,8-dihydropyrido[2,3-d]pyrimidin-4-yl)amino)ethyl)-2-phenyl-1,2-dihydroisoquinolin-8-yl)piperidin-4-yl) carbamate] | 9 | 64 | 45 | 78
4 | C[C@H](Nc1ncnc2[nH]ccc(=O)c12)c1c(Cl)c2cccc(N3CCN(c4ccccc4O)CC3)c2c(=O)n1-c1ccccc1 [Example 78, (S)-4-((1-(4-chloro-8-(4-(2-hydroxyphenyl)piperazin-1-yl)-1-oxo-2-phenyl-1,2-dihydroisoquinolin-3-yl)ethyl)amino)pyrido[2,3-d]pyrimidin-5(8H)-one] | 18 | 56 | 46 | 78
5 | C[C@H](Nc1ncnc2[nH]ccc(=O)c12)c1c(Cl)c2cccc(-c3cccc(C=O)c3)c2c(=O)n1-c1ccccc1 [Example 79, (S)-3-(4-chloro-1-oxo-3-(1-((5-oxo-5,8-dihydropyrido[2,3-d]pyrimidin-4-yl)amino)ethyl)-2-phenyl-1,2-dihydroisoquinolin-8-yl)benzaldehyde] | 82 | 98 | 114 | 111
6 | C[C@H](Nc1ncnc2[nH]ccc(=O)c12)c1cc2cccc(-c3ccc(C(N)=O)cc3)c2c(=O)n1-c1ccccc1 [Example 81, (S)-4-(1-oxo-3-(1-((5-oxo-5,8-dihydropyrido[2,3-d]pyrimidin-4-yl)amino)ethyl)-2-phenyl-1,2-dihydroisoquinolin-8-yl)benzamide] | 22 | 76 | 97 | 105
7 | Cc1c(-c2cccc3c(Cl)c([C@H](C)Nc4ncnc5[nH]ccc(=O)c45)n(-c4ccccc4)c(=O)c23)cnn1C [Example 82, (S)-4-((1-(4-chloro-8-(1,5-dimethyl-1H-pyrazol-4-yl)-1-oxo-2-phenyl-1,2-dihydroisoquinolin-3-yl)ethyl)amino)pyrido[2,3-d]pyrimidin-5(8H)-one] | 74 | 94 | 73 | 94
8 | C[C@H](Nc1ncnc2[nH]ccc(=O)c12)c1c(Cl)c2cccc(-c3cnn(CCN(C)C)c3)c2c(=O)n1-c1ccccc1 [Example 83, (S)-4-((1-(4-chloro-8-(1-(2-(dimethylamino)ethyl)-1H-pyrazol-4-yl)-1-oxo-2-phenyl-1,2-dihydroisoquinolin-3-yl)ethyl)amino)pyrido[2,3-d]pyrimidin-5(8H)-one] | 66 | 94 | 56 | 89
9 | C[C@H](Nc1ncnc2[nH]ccc(=O)c12)c1c(Cl)c2cccc(-c3ccc(N(C)C)nc3)c2c(=O)n1-c1ccccc1 [Example 86, (S)-4-((1-(4-chloro-8-(6-(dimethylamino)pyridin-3-yl)-1-oxo-2-phenyl-1,2-dihydroisoquinolin-3-yl)ethyl)amino)pyrido[2,3-d]pyrimidin-5(8H)-one] | 72 | 95 | 67 | 94
10 | C[C@H](Nc1ncnc2[nH]ccc(=O)c12)c1c(Cl)c2cccc(-c3ccc(N4CCCCC4)cc3)c2c(=O)n1-c1ccccc1 [Example 88, (S)-4-((1-(4-chloro-1-oxo-2-phenyl-8-(4-(piperidin-1-yl)phenyl)-1,2-dihydroisoquinolin-3-yl)ethyl)amino)pyrido[2,3-d]pyrimidin-5(8H)-one] | 33 | 78 | 42 | 88
11 | C[C@H](Nc1ncnc2[nH]ccc(=O)c12)c1c(Cl)c2cccc(-c3cccc4[nH]ccc34)c2c(=O)n1-c1ccccc1 [Example 89, (S)-4-((1-(4-chloro-8-(1H-indol-4-yl)-1-oxo-2-phenyl-1,2-dihydroisoquinolin-3-yl)ethyl)amino)pyrido[2,3-d]pyrimidin-5(8H)-one] | 17 | 52 | 58 | 92
12 | C[C@H](Nc1ncnc2[nH]ccc(=O)c12)c1c(Cl)c2cccc(-c3cccc(CC#N)c3)c2c(=O)n1-c1ccccc1 [Example 91, (S)-2-(3-(4-chloro-1-oxo-3-(1-((5-oxo-5,8-dihydropyrido[2,3-d]pyrimidin-4-yl)amino)ethyl)-2-phenyl-1,2-dihydroisoquinolin-8-yl)phenyl)acetonitrile] | 77 | 98 | 89 | 101

Results, then the compound that gave them:

Row | inhibition at 0.01 µM [1] [%] | inhibition at 0.1 µM [1] [%] | inhibition at 0.01 µM [2] [%] | inhibition at 0.1 µM [2] [%] | Compound
13 | 90 | 106 | 110 | 101 | C[C@H](Nc1ncnc2[nH]ccc(=O)c12)c1c(Cl)c2cccc(-c3ccc(C(N)=O)cc3)c2c(=O)n1-c1ccccc1 [Example 80, (S)-4-(4-chloro-1-oxo-3-(1-((5-oxo-5,8-dihydropyrido[2,3-d]pyrimidin-4-yl)amino)ethyl)-2-phenyl-1,2-dihydroisoquinolin-8-yl)benzamide]
14 | 16 | 65 | 49 | 91 | C[C@H](Nc1ncnc2[nH]ccc(=O)c12)c1c(Cl)c2cccc(-c3ccc(Cl)cc3)c2c(=O)n1-c1ccccc1 [Example 84, (S)-4-((1-(4-chloro-8-(4-chlorophenyl)-1-oxo-2-phenyl-1,2-dihydroisoquinolin-3-yl)ethyl)amino)pyrido[2,3-d]pyrimidin-5(8H)-one]
15 | 56 | 91 | 73 | 95 | C[C@H](Nc1ncnc2[nH]ccc(=O)c12)c1c(Cl)c2cccc(-c3ccc(C=O)cc3)c2c(=O)n1-c1ccccc1 [Example 85, (S)-4-(4-chloro-1-oxo-3-(1-((5-oxo-5,8-dihydropyrido[2,3-d]pyrimidin-4-yl)amino)ethyl)-2-phenyl-1,2-dihydroisoquinolin-8-yl)benzaldehyde]
16 | 31 | 79 | 38 | 83 | C[C@H](Nc1ncnc2[nH]ccc(=O)c12)c1c(Cl)c2cccc(-c3ccc(N4CCCC4)cc3)c2c(=O)n1-c1ccccc1 [Example 87, (S)-4-((1-(4-chloro-1-oxo-2-phenyl-8-(4-(pyrrolidin-1-yl)phenyl)-1,2-dihydroisoquinolin-3-yl)ethyl)amino)pyrido[2,3-d]pyrimidin-5(8H)-one]
17 | 63 | 92 | 91 | 97 | C[C@H](Nc1ncnc2[nH]ccc(=O)c12)c1c(Cl)c2cccc(-c3ccc(-c4nnc(N)s4)cc3)c2c(=O)n1-c1ccccc1 [Example 92, (S)-4-((1-(8-(4-(5-amino-1,3,4-thiadiazol-2-yl)phenyl)-4-chloro-1-oxo-2-phenyl-1,2-dihydroisoquinolin-3-yl)ethyl)amino)pyrido[2,3-d]pyrimidin-5(8H)-one]
18 | 13 | 45 | 46 | 79 | C[C@H](Nc1ncnc2[nH]ccc(=O)c12)c1c(Cl)c2cccc(-c3ccc(-c4cccs4)cc3)c2c(=O)n1-c1ccccc1 [Example 93, (S)-4-((1-(4-chloro-1-oxo-2-phenyl-8-(4-(thiophen-2-yl)phenyl)-1,2-dihydroisoquinolin-3-yl)ethyl)amino)pyrido[2,3-d]pyrimidin-5(8H)-one]
19 | 78 | 100 | 84 | 95 | C[C@H](Nc1ncnc2[nH]ccc(=O)c12)c1c(Cl)c2cccc(-c3ccc(N)cc3)c2c(=O)n1-c1ccccc1 [Example 94, (S)-4-((1-(8-(4-aminophenyl)-4-chloro-1-oxo-2-phenyl-1,2-dihydroisoquinolin-3-yl)ethyl)amino)pyrido[2,3-d]pyrimidin-5(8H)-one]
20 | 9 | 16 | 3 | 14 | C[C@H](Nc1ncnc2[nH]ccc(=O)c12)c1c(Cl)c2cccc(-c3ccc(S)cc3)c2c(=O)n1-c1ccccc1 [Example 95, (S)-4-((1-(4-chloro-8-(4-mercaptophenyl)-1-oxo-2-phenyl-1,2-dihydroisoquinolin-3-yl)ethyl)amino)pyrido[2,3-d]pyrimidin-5(8H)-one]
